The values below are quoted from earlier work in US8158685B2, “Method for bone growth” (priority 2004, dated 2012).

The test system of one series is bone graft. Particulars: fluoride alone added to bone graft material.
For another series, the system named is spine. The note with it: immediate-release form, 75 mg/day with calcium carbonate over 4 years.

On to `F` [fluoride], for which the “improvement/increase in bone density” value in the series with bone graft is recorded as 20%. On to `[F-].[Na+]` [sodium fluoride], for which, in the series on spine, the bone density increase is 35% and the “effect on spinal fractures” value is reported as “failed to reduce spinal fractures”.
